Assays:
[1] = Treatment of PVCs in a patient with lithium carbonate in combination with metoprolol (cardiac event monitor / EKG); assay type: in vivo, human; conditions: lithium carbonate 300 mg per day (150 mg BID) in combination with metoprolol 150 mg per day
Source text: Trial 1 was started on Aug. 23, 2019 and stopped on Jan. 1, 2020; Trial 2 was started on Jan. 12, 2020 and stopped on Apr. 21, 2020; and Trial 3 was started on May 8, 2020 and was ongoing at the time the instant application was filed.
The first trial was 109 days. The second trial was 43 days.

[2] = patient; lithium carbonate 300 mg per day (Li2CO3 150 mg BID)

For `O=C([O-])[O-].[Li+].[Li+]` [lithium carbonate], the “PVCs reduced, each of three trials” value ([1]; each trial, for the duration of treatment with lithium) was “at least 90%”, the “PVCs reduced (reduction of PVCs)” value ([1]; within a few days, for the duration of lithium treatment) was “about 90%” and the lithium serum level [2] was “about 0.2”.
